These results are taken from US5380714A, “2-furyl-triazalo [1,5-a]-[1,3,5]triazines and pyrazolo [2,3-a][1,3,5]triazines” (Imperial Chemical Industries PLC, priority 1991, dated 1995).

SMILES strings stand for the structures.

The target of the assay is T1, A2 Adenosine receptor (Rattus norvegicus, UniProt P30543).
T1 construct: membrane preparations derived from the rat phaeochromocytoma cell line PC 12; host or cells: PC 12 (rat phaeochromocytoma)
As to the kind of experiment: A2 Adenosine receptor affinity test: displacement of [3H]-NECA from PC 12 cell membranes. The assay is classed as binding. From the text: (a) A2 Adenosine receptor affinity test This test involves the ability of a test adenosine antagonist to displace the known adenosine mimetic agent [^3 H]-N-ethylcarboxamidoadenosine (NECA) from binding sites on membrane preparations derived from the rat phaeochromocytoma cell line PC 12 (available from the Beatson Institute, Glasgow). […] The membrane preparation is obtained as follows: Frozen pellets of PC12 cells are washed twice with ice cold, buffered, physiological saline and the cells recovered by centrifugation (1500 G) at 3° C. The separated cells are then suspended in hypotonic solution (distilled water), allowed to stand on ice for 30 minutes and are then carefully homogenized using a standard high-speed homogeniser with periodic ice-cooling to obtain a fine suspension. […] A1280). The mixture is then incubated at 37° C. After 20 minutes, the reaction is terminated by dilution with ice-cold buffer and transfer onto ice. The material obtained containing the cell membranes is recovered by centrifugation and washed by resuspension in buffer and recentrifugation. The pellet produced is then resuspended in ice-cold buffer using a hand-driven homogenizer. The resultant membrane suspension is frozen and stored under liquid nitrogen until required. […] After incubation, the samples are rapidly filtered over glass-fibre mats and the filter mats are washed to remove non-receptor-bound radioligand. Receptor-bound radioligand entrapped on the filter mats is then determined by liquid scintillation counting. Filtration and washing are carried out using a conventional vacuum filtration cell harvester. The specific binding (defined as the difference between the total binding and the non-specific binding) in the presence of the particular test compound is determined and compared with the control value.
Background: Displacement assays read how much labelled ligand stays bound in the presence of the test substance.

Where [1] appears, read: read-out: displacement of control binding.

T1 sequence (P30543 whole entry): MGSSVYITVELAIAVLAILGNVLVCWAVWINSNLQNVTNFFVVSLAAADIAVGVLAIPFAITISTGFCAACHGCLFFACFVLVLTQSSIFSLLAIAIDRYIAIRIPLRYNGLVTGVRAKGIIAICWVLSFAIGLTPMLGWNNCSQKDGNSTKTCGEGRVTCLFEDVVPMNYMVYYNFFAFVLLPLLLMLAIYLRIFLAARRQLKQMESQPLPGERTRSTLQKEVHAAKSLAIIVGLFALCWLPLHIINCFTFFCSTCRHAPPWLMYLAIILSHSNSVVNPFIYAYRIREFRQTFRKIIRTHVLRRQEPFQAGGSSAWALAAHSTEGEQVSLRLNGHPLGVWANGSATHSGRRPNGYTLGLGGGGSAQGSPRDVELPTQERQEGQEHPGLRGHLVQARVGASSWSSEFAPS

For `CN(C)CCN(C)S(=O)(=O)c1ccc(CCNc2nc(N)n3nc(-c4ccco4)nc3n2)cc1` [Example 1, 7-Amino-2-(2-furyl)-5-[2-[(4-dimethylaminoethyl-N,methylsulphonamido)phenyl]ethyl]amino[1,2,4]-triazolo[1,5-a][1,3,5]-triazine], for the setting “[3H]-NECA displacement, PC 12 membranes, inferred from displacement at 10^-5 M and 10^-7 M, read-out: pIC50 (indicated by % displacement values) (converted)”, the IC50 was < 0.1 µM. Under setting [1], the inhibition at 0.1 µM stood at 77.7% and the inhibition at 10 µM was 93.7%.
